Among the data in patent publication US12421249B2, “Inhibitors of APOL1 and methods of using same” (Vertex Pharmaceuticals Incorporated, priority 2020, dated 2025) are IC50 and Emax values, retold here.

The target in the assay is T1, APOL1 G1 (Homo sapiens, UniProt O14791, I384M/S342G).
T1 sequence (O14791 28-398 S342G/I384M): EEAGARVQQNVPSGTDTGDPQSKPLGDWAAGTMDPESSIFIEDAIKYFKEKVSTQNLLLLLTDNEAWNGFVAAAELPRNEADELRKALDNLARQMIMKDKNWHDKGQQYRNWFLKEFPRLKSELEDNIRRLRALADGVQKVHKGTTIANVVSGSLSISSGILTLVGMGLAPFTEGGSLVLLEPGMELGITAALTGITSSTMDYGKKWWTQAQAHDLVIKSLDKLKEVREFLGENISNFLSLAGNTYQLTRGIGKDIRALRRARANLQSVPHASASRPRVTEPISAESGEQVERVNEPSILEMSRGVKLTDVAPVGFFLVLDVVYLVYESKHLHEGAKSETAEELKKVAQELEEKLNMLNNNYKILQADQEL
Description: Trypanosoma brucei brucei Lysis Assay Using APOL1 Recombinant Protein (AlamarBlue viability readout). It counts as cell-based. To be noted: Trypanosome Assay. The gist of the method:
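Percent viability comes from AlamarBlue (resazurin→resorufin) fluorescence interpolated on a standard curve of known parasite numbers, with no-APOL1 wells as 100%. Parasites (Lister 427 bloodstream form, 120,000/well, serum-free assay medium) meet 0.05 μg/mL APOL1 (~EC90). Compounds span a 10-point series, 0.1% DMSO final.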

pIC50: −log10 of the molar value. Some results are limits rather than exact numbers.

Turning to `[2H]C1([2H])O[C@@]2(C[C@@H](c3cn(C)nn3)N[C@@H](C)C2)c2sc(Cl)cc2[C@]1([2H])O` [Compound 385, (2S,4S,4′S,6S)-2′-chloro-4′,5′,5′-trideuterio-2-methyl-6-(1-methyltriazol-4-yl)spiro[piperidine-4,7′-thieno[2,3-c]pyran]-4′-ol], under “IP50 = IC50 for cell proliferation, read-out: Trypanosome Assay IP50”, the pIC50 is greater than 7.30. In addition, where the note is “read-out: Trypanosome Assay Max Activity (%)”, the Emax came to 104%.
